# Data published in US4525358A, “2-[4-(Diphenylmethyl)-1-piperazinyl]-acetic acids and their amides” (UCB Pharmaceuticals, Inc., priority 1981, dated 1985).
# How the values were obtained:
# [1] = test system: passive cutaneous anaphylaxis; experiment: passive cutaneous anaphylaxis test (PCA), antiallergic activity; assay type: in vivo; conditions: rats
# Experimental: This activity is determined in rats by means of the passive cutaneous anaphylaxis test (PCA) (see J. GOOSE and A. M. J. N. BlAIR, Immunology, 16, (1969), 749-760; and […] and D. ROEMER, Arzneimittel-Forschung, 28, (5), (1978), 770-782). Female rats are used, the sides of which have been partly shaved. Into the zone thus shaved there is injected intradermally, for passive sensitization of the animals, 0.05 ml of IGE antiovalbumin serum at a dilution such that, at the time of the PCA test, a distinct spot with a surface area of about 100 mm^2 appears at the point of injection. […] At the point of intradermal injection, there appears a distinct blue spot, the surface of which is measured. In order to test the activity of the compounds according to the present invention, the procedure is carried out in the same manner; however, the test compound is administered orally 72 hours after injection of the serum; 15 minutes after this administration, 0.25 ml of the solution of the allergen is injected intravenously; 30 minutes after the administration of the allergen, the surface of the blue spot is measured.
# [2] = intravenous; cited from earlier work
structure (smiles),measurement,setting,value
O=C(O)c1cc(=O)c2c(OCC(O)COc3cccc4oc(C(=O)O)cc(=O)c34)cccc2o1 [sodium cromoglycate],ID 50 per os (reduction of 50% of the surface area of the colored spot),[1]; 15 minutes before allergen,inactive
same,"antiallergic activity (PCA), in words",[1]; per os,inactive
same,antiasthmatic activity,[2],well known for its antiasthmatic activity
